Results as given in patent publication US10961202B2, “Bis-benzimidazole compounds and methods of using the same” (THE SCRIPPS RESEARCH INSTITUTE, priority 2017, dated 2021).
Read-outs that look alike come from different tables or passages of the source.

Key:
[1] = test system: r(CUG)12-MBNL1 complex; assay: Inhibition of the r(CUG)12-MBNL1 complex measured by TR-FRET; format: biochemical; details: 80 nM RNA, 60 nM MBNL1-His6
[2] = test system: MBNL1 exon 5 inclusion in DM1 myotubes; assay: Myotube splicing rescue assay (MBNL1 exon 5 inclusion); format: cell-based, human; details: 48-hour incubation
[3] = test system: HSALR strain 20b mice; assay: DM1 mouse efficacy study: RT-PCR of MBNL1-dependent splicing targets in gastrocnemius; format: in vivo; details: sc, 7.5 mg/kg qod 5 doses, subcutaneous

CN(C)CCCOc1ccc(-c2nc3cc(-c4ccc5[nH]c(-c6ccc(C(=O)NCCN(C)C)cc6)nc5c4)ccc3[nH]2)cc1 [Compound 346]
IC50 ([1]; Table M): 6.45 µM | MBNL1 % splicing rescue at 1 μM [2]: 79.9% | MBNL1 % splicing rescue at 10 μM [2]: 74.8% | percent splicing rescue at 7.5 mg/kg ([3]; read-out: Clcn1 exon 7a splicing rescue %): 105% | percent splicing rescue at 7.5 mg/kg ([3]; read-out: Mbnl1 exon 5 splicing rescue %): 11.8% | percent splicing rescue at 7.5 mg/kg ([3]; read-out: Serca1 exon 22 splicing rescue %): 22.3%

CC(C)N(CCNC(=O)c1ccc(-c2nc3cc(-c4ccc5[nH]c(-c6ccc(C(=O)NCCN(C(C)C)C(C)C)cc6)nc5c4)ccc3[nH]2)cc1)C(C)C [Compound 113]
IC50 ([1]; Table L): 12.6 µM | MBNL1 % splicing rescue at 1 μM [2]: 7.9% | MBNL1 % splicing rescue at 10 μM [2]: 45.3%

CN(C)CCCOc1ccc(-c2nc3cc(-c4ccc5[nH]c(-c6ccc(O)cc6)nc5c4)ccc3[nH]2)cc1 [Compound 348]
IC50 ([1]; Table M): 16.8 µM | MBNL1 % splicing rescue at 1 μM [2]: 75.3% | MBNL1 % splicing rescue at 10 μM [2]: 75.3%

CN1CCN(c2ccc(-c3nc4cc(-c5ccc6[nH]c(-c7ccc(N8CCN(C)CC8)cc7)nc6c5)ccc4[nH]3)cc2)CC1 [Compound 334]
IC50 ([1]; Table M): 14.2 µM | MBNL1 % splicing rescue at 1 μM [2]: 73.1%

CN1CCC(NC(=O)c2ccc(-c3nc4cc(-c5ccc6[nH]c(-c7ccc(C(=O)NC8CCN(C)CC8)cc7)nc6c5)ccc4[nH]3)cc2)CC1 [Compound 338]
IC50 ([1]; Table M): 4.56 µM | MBNL1 % splicing rescue at 1 μM [2]: 7.8% | MBNL1 % splicing rescue at 10 μM [2]: −5.3%

N=C(N)NCCNC(=O)c1ccc2nc(-c3ccc(-c4nc5ccc(C(=O)NCCNC(=N)N)cc5[nH]4)cc3)[nH]c2c1 [Compound 38]
IC50 ([1]; Table L): 2.6 µM | MBNL1 % splicing rescue at 10 μM [2]: 0.0%

C[C@@H](NC(=O)CNCCCn1cc(CCCCN(C)CCNC(=O)c2ccc(-c3nc4cc(-c5ccc6[nH]c(-c7ccc(OCCCN(C)C)cc7)nc6c5)ccc4[nH]3)cc2)nn1)C(=O)N[C@H](C)C(=O)N[C@H](C)C(=O)N[C@H](C)C(=O)N(CCCn1cc(CCCCN(C)CCNC(=O)c2ccc(-c3nc4cc(-c5ccc6[nH]c(-c7ccc(OCCCN(C)C)cc7)nc6c5)ccc4[nH]3)cc2)nn1)CC(N)=O [Compound 461]
IC50 ([1]; Table M): 2.5 µM | MBNL1 % splicing rescue at 10 μM [2]: −35.5%

CN1CCN(Cc2ccc(-c3nc4cc(-c5ccc6[nH]c(-c7ccc(CN8CCN(C)CC8)cc7)nc6c5)ccc4[nH]3)cc2)CC1 [Compound 337]
IC50 ([1]; Table M): 31.9 µM | MBNL1 % splicing rescue at 1 μM [2]: 57.2% | MBNL1 % splicing rescue at 10 μM [2]: 73.3%

CN(C)CCCOc1ccc2nc(-c3ccc(-c4nc5ccc(OCCCN(C)C)cc5[nH]4)c(OCCCl)c3)[nH]c2c1 [Compound 267, 3,3′-(((2-(2-chloroethoxy)-1,4-phenylene)bis(1H-benzo[d]imidazole-2,6-diyl))bis(oxy))bis(N,N-dimethylpropan-1-amine)]
IC50 ([1]; Table M): 10.9 µM | MBNL1 % splicing rescue at 10 μM [2]: 1.8%

COc1cc(-c2nc3ccc(C(=O)NCCCN(C)C)cc3[nH]2)c(OC)cc1-c1nc2cc(OCCCN(C)C)ccc2[nH]1 [Compound 299]
IC50 ([1]; Table M): 10.3 µM | MBNL1 % splicing rescue at 10 μM [2]: −34.9%

CN(C)CCCOc1ccc2nc(-c3ccc(-c4nc5ccc(OCCCN(C)C)cc5[nH]4)c(OCCN=[N+]=[N-])c3)[nH]c2c1 [Compound 265, 3,3′-((2,2′-(2-(2-azidoethoxy)-1,4-phenylene)bis(1H-benzo[d]imidazole-6,2-diyl))bis(oxy))bis(N,N-dimethylpropan-1-amine)]
IC50 ([1]; Table M): 16.6 µM | MBNL1 % splicing rescue at 10 μM [2]: 84.3%

O=C(NCCN1CCNCC1)c1ccc2nc(-c3ccc(-c4nc5ccc(C(=O)NCCN6CCNCC6)cc5[nH]4)cc3)[nH]c2c1 [Compound 47, 2,2′-(1,4-phenylene)bis(N-(2-(piperazin-1-yl)ethyl)-1H-benzo[d]imidazole-6-carboxamide)]
IC50 ([1]; Table L): 6.8 µM | MBNL1 % splicing rescue at 10 μM [2]: 12.8%

CN(C)CCCOc1ccc2nc(-c3ccc(-c4nc5ccc(OCCCN(C)C)cc5[nH]4)c(OCCO)c3)[nH]c2c1 [Compound 259, 2-(2,5-bis(6-(3-(dimethylamino)propoxy)-1H-benzo[d]imidazol-2-yl)phenoxy)ethanol]
IC50 ([1]; Table M): 7.2 µM | MBNL1 % splicing rescue at 10 μM [2]: −12.7%

C#CCOc1cc(-c2nc3ccc(OCCCN(C)C)cc3[nH]2)ccc1-c1nc2ccc(OCCCN(C)C)cc2[nH]1 [Compound 255, 3,3′-((2,2′-(2-(prop-2-yn-1-yloxy)-1,4-phenylene)bis(1H-benzo[d]imidazole-6,2-diyl))bis(oxy))bis(N,N-dimethylpropan-1-amine)]
IC50 ([1]; Table M): 3.7 µM | MBNL1 % splicing rescue at 10 μM [2]: 89.2%

O=C(NCCN1CCC(O)CC1)c1ccc2[nH]c(-c3ccc(-c4nc5ccc(C(=O)NCCN6CCC(O)CC6)cc5[nH]4)cc3)nc2c1 [Compound 146]
IC50 ([1]; Table L): 15.8 µM | MBNL1 % splicing rescue at 1 μM [2]: 0.8% | MBNL1 % splicing rescue at 10 μM [2]: 7.1%

CN(C)CCCS(=O)(=O)c1ccc2[nH]c(-c3ccc(-c4nc5cc(S(=O)(=O)CCCN(C)C)ccc5[nH]4)cc3)nc2c1 [Compound 202, 3,3′-(2,2′-(1,4-phenylene)bis(1H-benzo[d]imidazole-6,6′-sulfonyl))bis(N,N-dimethylpropan-1-amine)]
IC50 ([1]; Table M): 42 µM | MBNL1 % splicing rescue at 10 μM [2]: 34.0%

CN(C)CCCCCCOc1ccc2nc(-c3ccc(-c4nc5ccc(OCCCCCCN(C)C)cc5[nH]4)cc3)[nH]c2c1 [Compound 212]
IC50 ([1]; Table M): 5.3 µM | MBNL1 % splicing rescue at 10 μM [2]: 77.0%

CN(C)CCCOc1ccc2nc(-c3ccc(-c4ccc(-c5nc6ccc(OCCCN(C)C)cc6[nH]5)cc4)cc3)[nH]c2c1 [Compound 170]
IC50 ([1]; Table M): 6.14 µM | MBNL1 % splicing rescue at 1 μM [2]: 24.6% | MBNL1 % splicing rescue at 10 μM [2]: 85.5%

CN1CCC(COc2ccc3nc(-c4ccc(-c5nc6ccc(OCC7CCN(C)CC7)cc6[nH]5)c(F)c4)[nH]c3c2)CC1 [Compound 315]
IC50 ([1]; Table M): 6.1 µM | MBNL1 % splicing rescue at 10 μM [2]: 88.4%

CN(C)CCNC(=O)c1ccc(-c2nc3cc(-c4ccc5[nH]c(-c6ccc(SCCN(C)C)cc6)nc5c4)ccc3[nH]2)cc1 [Compound 384]
IC50 ([1]; Table M): 10.1 µM | MBNL1 % splicing rescue at 10 μM [2]: 93.9%

CN(C)CCCOc1ccc2nc(-c3ccc(-c4nc5ccc(OCCCN(C)C)cc5[nH]4)nc3)[nH]c2c1 [Compound 276, 3,3′-(2,2′-(pyridine-2,5-diyl)bis(3H-benzo[d]imidazole-5,2-diyl))bis(oxy)bis(N,N-dimethylpropan-1-amine)]
IC50 ([1]; Table M): 9.7 µM | MBNL1 % splicing rescue at 10 μM [2]: 63.1%

Nc1cc(-c2nc3ccc(C(=O)NCCN4CCCCC4)cc3[nH]2)ccc1-c1nc2ccc(C(=O)NCCN3CCCCC3)cc2[nH]1 [Compound 176, 2,2′-(2-amino-1,4-phenylene)bis(N-(2-(piperidin-1-yl)ethyl)-1H-benzo[d]imidazole-6-carboxamide)]
IC50 ([1]; Table M): 5.52 µM | MBNL1 % splicing rescue at 10 μM [2]: −5.0%

CN(C)CCc1cn(-c2ccc3nc(-c4ccc(-c5nc6ccc(-n7cc(CCN(C)C)nn7)cc6[nH]5)cc4)[nH]c3c2)nn1 [Compound 221]
IC50 ([1]; Table M): 2.53 µM | MBNL1 % splicing rescue at 10 μM [2]: −2.5%

N=C(N)NCCC(=O)Nc1ccc2nc(-c3ccc(-c4nc5ccc(NC(=O)CCNC(=N)N)cc5[nH]4)cc3)[nH]c2c1 [Compound 65]
IC50 ([1]; Table L): 3.6 µM | MBNL1 % splicing rescue at 1 μM [2]: 31.7%

C[N+](C)(C)CCOC(=O)c1ccc2nc(-c3ccc(-c4nc5ccc(C(=O)OCC[N+](C)(C)C)cc5[nH]4)cc3)[nH]c2c1 [Compound 55, 2,2′-((2,2′-(1,4-phenylene)bis(1H-benzo[d]imidazole-6,6′-carbonyl))bis(oxy))bis(N,N,N-trimethylethanaminium) chloride]
IC50 ([1]; Table L): 4.2 µM | MBNL1 % splicing rescue at 10 μM [2]: 12.0%

CN1CCC(COc2ccc(-c3nc4cc(-c5ccc6[nH]c(-c7ccc(OCC8CCN(C)CC8)cc7)nc6c5)ccc4[nH]3)cc2)CC1 [Compound 336]
IC50 ([1]; Table M): 8.03 µM | MBNL1 % splicing rescue at 1 μM [2]: 59.0% | MBNL1 % splicing rescue at 10 μM [2]: 77.0%

O=C(NCCN1CCCCC1)c1ccc2nc(-c3ccc(-c4nc5ccc(C(=O)NCCN6CCCCC6)cc5[nH]4)c([N+](=O)[O-])c3)[nH]c2c1 [Compound 173, 2,2′-(2-nitro-1,4-phenylene)bis(N-(2-(piperidin-1-yl)ethyl)-1H-benzo[d]imidazole-6-carboxamide)]
IC50 ([1]; Table M): 22 µM | MBNL1 % splicing rescue at 1 μM [2]: 1.5% | MBNL1 % splicing rescue at 10 μM [2]: 23.1%

C#CCCCCN(C)CCNC(=O)c1ccc(-c2nc3cc(-c4ccc5[nH]c(-c6ccc(C(=O)NCCN(C)C)cc6)nc5c4)ccc3[nH]2)cc1 [Compound 401, N-(2-(dimethylamino)ethyl)-4-(2′-(4-((2-(hex-5-yn-1-yl(methyl)amino)ethyl)carbamoyl)phenyl)-1H,1′H-[5,5′-bibenzo[d]imidazol]-2-yl)benzamide]
IC50 ([1]; Table M): 10.6 µM | MBNL1 % splicing rescue at 5 μM ([2]; 5 μM): −11.3%

CN(C)CCSc1ccc2nc(-c3ccc(-c4nc5ccc(SCCN(C)C)cc5[nH]4)cc3)[nH]c2c1 [Compound 59, 2,2′-((2,2′-(1,4-phenylene)bis(1H-benzo[d]imidazole-6,2-diyl))bis(sulfanediyl))bis(N,N-dimethylethanamine)]
IC50 ([1]; Table L): 10.8 µM | MBNL1 % splicing rescue at 10 μM [2]: −17.6%
